Laboratory results as given in patent publication US9346813B2, “Substituted pyrrolo[2,3-d]pyrimindines as CDK9 kinase inhibitors” (AbbVie Inc., priority 2014, dated 2016).

Columns and labels:
H929 cells = assay: Cell viability assay in H929 cells (Cell TiterGlo); format: cell-based; settings: Homo sapiens, NCI-H929, 24 hours at 37° C.
Description: Cell viability assays were performed using A431 or H929 cells. A431 cells were seeded in 96-well plates at 10,000 cells/well, and after overnight incubation, treated with compounds at 2-times the final concentration to result in a dose response of 3-fold dilutions from 10 μM to 0.0005 μM (50 μL/well, 0.1% final DMSO concentration). H929 cells were seeded in 96-well plates at 10,000 cells/well and treated immediately with compounds as described above. After 24 hours at 37° C., cell viability was measured using Cell TiterGlo reagent (Promega) with a luminescence reader. Alternately, cell viability assays were performed in 384-well format. A431 cells were seeded in 384-well plates at 2500 cells/well and, after overnight incubation, treated with compounds in a dose response of 3-fold dilutions from 10 μM to 0.0005 μM (25 nL/well, 0.1% final DMSO concentration). For the H929 viability assay, 25 nL/well of the compounds was dispensed into 384-well plates in a dose response as described above and cells were immediately seeded in 384-well plates at 2500 cells/well. After 24 hours at 37° C., cell viability was measured using Cell TiterGlo reagent (Promega) with a luminescence reader.

CDK9/Cyclin T1 = biological target: T1, CDK9/Cyclin T1 (Homo sapiens, UniProt P50750); assay: CDK9 enzyme protocol (LANCE ULight TR-FRET kinase assay); format: biochemical; settings: 4 nM CDK9/Cyclin T1, 1000 μM ATP, 100 nM U-light MBP peptide, 30 minutes
T1 construct: purchased Carna Biosciences 04-110
Description: CDK9 enzyme activities were measured using LANCE ULight TR-FRET kinase assay reagents (PerkinElmer, Waltham, Mass.). Compounds were directly added in 100% DMSO to white low volume assay plates (Perkin Elmer Proxiplate 6008289) using a Labcyte Echo acoustic dispenser. Assay reagents in serine/threonine kinase assay buffer containing 20 mM HEPES, 10 mM MgCl2, 100 mM Na3VO4, and 0.0075% Triton X-100. were added for final reaction mixture concentrations of 1000 μM ATP, 100 nM U-light MBP peptide (Perkin Elmer TRF0109M) and reaction initiated with 4 nM CDK9/Cyclin T1 (Carna Biosciences 04-110). The kinase reaction was carried out for 30 minutes before addition of stopping buffer to a final of 20 mM EDTA and 0.5 nM of LANCE Ultra Europium anti-phospho-MBP antibody (PerkinElmer TRF0201M) in LANCE detection buffer (PerkinElmer CR97-100). The reaction was equilibrated for 1 hour and the signal read in the Perkin Elmer Envision in TR-FRET mode (excitation at 320 nm and emission at 615/665 nm).

T1 sequence (P50750 whole entry): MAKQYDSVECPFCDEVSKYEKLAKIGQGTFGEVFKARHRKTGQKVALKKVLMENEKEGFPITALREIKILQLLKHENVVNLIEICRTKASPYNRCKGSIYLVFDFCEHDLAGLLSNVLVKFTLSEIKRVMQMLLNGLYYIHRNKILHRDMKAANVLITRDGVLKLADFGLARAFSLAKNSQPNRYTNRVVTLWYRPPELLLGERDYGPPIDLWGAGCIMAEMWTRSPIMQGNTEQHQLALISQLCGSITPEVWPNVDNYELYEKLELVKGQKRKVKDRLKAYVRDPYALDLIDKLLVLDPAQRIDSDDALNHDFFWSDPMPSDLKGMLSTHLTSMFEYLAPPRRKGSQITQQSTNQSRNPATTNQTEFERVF
T1 sequence (O60563 whole entry partner): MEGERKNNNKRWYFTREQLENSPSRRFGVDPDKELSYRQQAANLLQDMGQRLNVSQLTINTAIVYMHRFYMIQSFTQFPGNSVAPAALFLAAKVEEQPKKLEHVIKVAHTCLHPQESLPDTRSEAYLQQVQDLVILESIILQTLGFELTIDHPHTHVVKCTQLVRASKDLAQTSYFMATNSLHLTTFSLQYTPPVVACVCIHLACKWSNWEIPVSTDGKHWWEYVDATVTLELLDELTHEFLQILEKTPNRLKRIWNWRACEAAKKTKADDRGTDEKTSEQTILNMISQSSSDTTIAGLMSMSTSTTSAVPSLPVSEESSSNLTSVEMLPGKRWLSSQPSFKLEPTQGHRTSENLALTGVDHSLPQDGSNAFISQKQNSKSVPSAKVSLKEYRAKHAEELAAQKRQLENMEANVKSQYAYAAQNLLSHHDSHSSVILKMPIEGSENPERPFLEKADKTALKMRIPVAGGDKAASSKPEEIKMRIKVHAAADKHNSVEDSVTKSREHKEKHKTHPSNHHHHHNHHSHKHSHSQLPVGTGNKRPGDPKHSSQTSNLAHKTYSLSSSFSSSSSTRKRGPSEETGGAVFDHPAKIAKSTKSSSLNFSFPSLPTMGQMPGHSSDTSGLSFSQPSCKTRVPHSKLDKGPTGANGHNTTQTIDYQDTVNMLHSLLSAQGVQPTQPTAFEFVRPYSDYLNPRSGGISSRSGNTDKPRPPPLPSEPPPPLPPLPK

Row | SMILES | EC50 (H929 cells) [nM] | IC50 (CDK9/Cyclin T1) [nM]
1 | COc1ccc(F)cc1-c1ncnc2[nH]c(C3=CCN(S(=O)(=O)C(F)(F)F)CC3)cc12 [Example 40, 4-(5-fluoro-2-methoxyphenyl)-6-{1-[(trifluoromethyl)sulfonyl]-1,2,3,6-tetrahydropyridin-4-yl}-7H-pyrrolo[2,3-d]pyrimidine] | 669 | 150
2 | CS(=O)(=O)N1CC=C(c2cc3c(-c4cc(NCC5CCCO5)ccc4F)ncnc3[nH]2)CC1 (centres unmarked) [Example 32, 4-fluoro-3-{6-[1-(methylsulfonyl)-1,2,3,6-tetrahydropyridin-4-yl]-7H-pyrrolo[2,3-d]pyrimidin-4-yl}-N-(tetrahydrofuran-2-ylmethyl)aniline] | 3600 | 260
3 | COc1ccc(F)cc1-c1ncnc2[nH]c(C3=CCN(C(=O)N(C)C)CC3)cc12 [Example 75, 4-[4-(5-fluoro-2-methoxyphenyl)-7H-pyrrolo[2,3-d]pyrimidin-6-yl]-N,N-dimethyl-3,6-dihydropyridine-1(2H)-carboxamide] | 600 | 16
4 | COc1ccc(F)cc1-c1ncnc2[nH]c(C3=CCN(S(C)(=O)=O)CC3)cc12 [Example 5, 4-(5-fluoro-2-methoxyphenyl)-6-[1-(methylsulfonyl)-1,2,3,6-tetrahydropyridin-4-yl]-7H-pyrrolo[2,3-d]pyrimidine] | 380 | 20
5 | COCC(=O)N1CC=C(c2cc3c(-c4cc(F)ccc4OC)ncnc3[nH]2)CC1 [Example 18, 1-{4-[4-(5-fluoro-2-methoxyphenyl)-7H-pyrrolo[2,3-d]pyrimidin-6-yl]-3,6-dihydropyridin-1(2H)-yl}-2-methoxyethanone] | 400 | 130
6 | COc1ccc(F)cc1-c1ncnc2[nH]c(C3=CCN(C(=O)C4CCCOC4)CC3)cc12 (centres unmarked) [Example 15, 4-[4-(5-fluoro-2-methoxyphenyl)-7H-pyrrolo[2,3-d]pyrimidin-6-yl]-3,6-dihydropyridin-1(2H)-yl(tetrahydro-2H-pyran-3-yl)methanone] | 210 | 86
7 | COc1ccc(F)cc1-c1ncnc2[nH]c(C3=CCN(S(=O)(=O)C(C)C)CC3)cc12 [Example 10, 4-(5-fluoro-2-methoxyphenyl)-6-[1-(propan-2-ylsulfonyl)-1,2,3,6-tetrahydropyridin-4-yl]-7H-pyrrolo[2,3-d]pyrimidine] | 550 | 160
8 | COc1ccc(F)cc1-c1ncnc2[nH]c(C3=CCN(C(=O)C4CC4)CC3)cc12 [Example 11, cyclopropyl{4-[4-(5-fluoro-2-methoxyphenyl)-7H-pyrrolo[2,3-d]pyrimidin-6-yl]-3,6-dihydropyridin-1(2H)-yl}methanone] | 310 | 43
9 | COc1ccc(F)cc1-c1ncnc2[nH]c(C3=CCN(Cc4ccc(C#N)cc4)CC3)cc12 [Example 22, 4-({4-[4-(5-fluoro-2-methoxyphenyl)-7H-pyrrolo[2,3-d]pyrimidin-6-yl]-3,6-dihydropyridin-1(2H)-yl}methyl)benzonitrile] | 1100 | 240
10 | COc1ccc(F)cc1-c1ncnc2[nH]c(C3=CCN(C4CCC(C(=O)O)CC4)CC3)cc12 (centres unmarked) [Example 86, 4-{4-[4-(5-fluoro-2-methoxyphenyl)-7H-pyrrolo[2,3-d]pyrimidin-6-yl]-3,6-dihydropyridin-1(2H)-yl}cyclohexanecarboxylic acid] | 3600 | 400
11 | COc1ccc(F)cc1-c1ncnc2[nH]c(C3=CCN(S(=O)(=O)C4CC4)CC3)cc12 [Example 8, 6-[1-(cyclopropylsulfonyl)-1,2,3,6-tetrahydropyridin-4-yl]-4-(5-fluoro-2-methoxyphenyl)-7H-pyrrolo[2,3-d]pyrimidine] | 690 | 19
12 | COc1ccc(F)cc1-c1ncnc2[nH]c(C3=CCN(C(=O)C4CCN4)CC3)cc12 (centres unmarked) [Example 12, azetidin-2-yl{4-[4-(5-fluoro-2-methoxyphenyl)-7H-pyrrolo[2,3-d]pyrimidin-6-yl]-3,6-dihydropyridin-1(2H)-yl}methanone] | 930 | 88
13 | COc1ccc(F)cc1-c1ncnc2[nH]c(C3=CCC(F)(F)CC3)cc12 [Example 61, 6-(4,4-difluorocyclohex-1-en-1-yl)-4-(5-fluoro-2-methoxyphenyl)-7H-pyrrolo[2,3-d]pyrimidine] | 1400 | 62
14 | COc1ccc(F)cc1-c1ncnc2[nH]c(C3=CCN(Cc4ccc(N)cc4)CC3)cc12 [Example 70, 4-({4-[4-(5-fluoro-2-methoxyphenyl)-7H-pyrrolo[2,3-d]pyrimidin-6-yl]-3,6-dihydropyridin-1(2H)-yl}methyl)aniline] | 160 | 91
15 | COc1ccc(F)cc1-c1ncnc2[nH]c(C3=CCN(CC4CCCO4)CC3)cc12 (centres unmarked) [Example 24, 4-(5-fluoro-2-methoxyphenyl)-6-[1-(tetrahydrofuran-2-ylmethyl)-1,2,3,6-tetrahydropyridin-4-yl]-7H-pyrrolo[2,3-d]pyrimidine] | 250 | 100
16 | COc1ccc(F)cc1-c1ncnc2[nH]c(C3=CCN(C(C)=O)CC3)cc12 [Example 6, 1-{4-[4-(5-fluoro-2-methoxyphenyl)-7H-pyrrolo[2,3-d]pyrimidin-6-yl]-3,6-dihydropyridin-1(2H)-yl}ethanone] | 410 | 42
17 | COc1ccc(F)cc1-c1ncnc2[nH]c(C3=CCN(Cc4ccnc(C(F)(F)F)c4)CC3)cc12 [Example 28, 4-(5-fluoro-2-methoxyphenyl)-6-(1-{[2-(trifluoromethyl)pyridin-4-yl]methyl}-1,2,3,6-tetrahydropyridin-4-yl)-7H-pyrrolo[2,3-d]pyrimidine] | 1000 | 220
18 | C=CCNC(=O)N1CC=C(c2cc3c(-c4cc(F)ccc4OC)ncnc3[nH]2)CC1 [Example 19, 4-[4-(5-fluoro-2-methoxyphenyl)-7H-pyrrolo[2,3-d]pyrimidin-6-yl]-N-(prop-2-en-1-yl)-3,6-dihydropyridine-1(2H)-carboxamide] | 180 | 88
19 | COc1ccc(F)cc1-c1ncnc2[nH]c(C3=CCC(C(=O)O)CC3)cc12 (centres unmarked) [Example 79, 4-[4-(5-fluoro-2-methoxyphenyl)-7H-pyrrolo[2,3-d]pyrimidin-6-yl]cyclohex-3-ene-1-carboxylic acid] | 6700 | 290
20 | CCOC(=O)NS(=O)(=O)N1CC=C(c2cc3c(-c4cc(F)ccc4OC)ncnc3[nH]2)CC1 [Example 82, ethyl ({4-[4-(5-fluoro-2-methoxyphenyl)-7H-pyrrolo[2,3-d]pyrimidin-6-yl]-3,6-dihydropyridin-1(2H)-yl}sulfonyl)carbamate] | 780 | 71
21 | COc1ccc(F)cc1-c1ncnc2[nH]c(C3=CCC(N[C@H](C(=O)O)C4CCCCC4)CC3)cc12 (stereo partly drawn) [Example 77, (2S)-cyclohexyl({4-[4-(5-fluoro-2-methoxyphenyl)-7H-pyrrolo[2,3-d]pyrimidin-6-yl]cyclohex-3-en-1-yl}amino)acetic acid] | 600 | 290
22 | COc1ccc(F)cc1-c1ncnc2[nH]c(C3=CCN(C(=O)[C@H]4CC[C@H](C(=O)OC)CC4)CC3)cc12 [Example 73, methyl trans-4-({4-[4-(5-fluoro-2-methoxyphenyl)-7H-pyrrolo[2,3-d]pyrimidin-6-yl]-3,6-dihydropyridin-1(2H)-yl}carbonyl)cyclohexanecarboxylate] | 150 | 70
